Laboratory results: ChEMBL document CHEMBL1201862, “PubChem BioAssay data set” (2004)
Calls of active or inactive are those of the source.

What was measured:
[1] = molecular target: Nonstructural protein 1 (Influenza A virus, UniProt Q194T2); assay type: functional, Influenza A virus (A/California/07/2009(H1N1))
[2] = NIH-3T3 fibroblast cytotoxicity, dose response, cytotoxicity control, cell-based, fluorescence, Alamar Blue, secondary assay (AID 2327); assay type: functional;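 note: NIH-3T3 mouse fibroblasts cultured with fluconazole at 8 µg/mL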
[3] = molecular target: T1, RNA-binding protein pos-1 (Caenorhabditis elegans, UniProt G5EF15); assay: inhibitors of POS-1/mex-3 RNA binding, dose response, biochemical, fluorescence polarization (AID 1964);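 note: purified POS-1 fused to maltose binding protein made in E. coli; potency of compounds blocking POS-1 binding to fluorescent RNA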
T1 sequence (G5EF15 whole entry): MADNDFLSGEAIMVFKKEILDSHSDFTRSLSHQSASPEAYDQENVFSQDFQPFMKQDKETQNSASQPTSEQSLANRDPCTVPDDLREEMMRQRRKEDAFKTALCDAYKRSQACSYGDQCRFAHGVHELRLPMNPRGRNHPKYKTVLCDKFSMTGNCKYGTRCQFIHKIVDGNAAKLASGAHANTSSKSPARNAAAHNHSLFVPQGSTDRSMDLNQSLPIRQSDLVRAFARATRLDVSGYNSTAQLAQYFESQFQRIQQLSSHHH

[4] = molecular target: T2, Zinc finger protein mex-5 (Caenorhabditis elegans, UniProt Q9XUB2); assay: MEX-5/TCR-2 RNA interaction inhibitors, dose response, biochemical, C. elegans, fluorescence polarization (AID 1960)
T2 sequence (Q9XUB2 whole entry): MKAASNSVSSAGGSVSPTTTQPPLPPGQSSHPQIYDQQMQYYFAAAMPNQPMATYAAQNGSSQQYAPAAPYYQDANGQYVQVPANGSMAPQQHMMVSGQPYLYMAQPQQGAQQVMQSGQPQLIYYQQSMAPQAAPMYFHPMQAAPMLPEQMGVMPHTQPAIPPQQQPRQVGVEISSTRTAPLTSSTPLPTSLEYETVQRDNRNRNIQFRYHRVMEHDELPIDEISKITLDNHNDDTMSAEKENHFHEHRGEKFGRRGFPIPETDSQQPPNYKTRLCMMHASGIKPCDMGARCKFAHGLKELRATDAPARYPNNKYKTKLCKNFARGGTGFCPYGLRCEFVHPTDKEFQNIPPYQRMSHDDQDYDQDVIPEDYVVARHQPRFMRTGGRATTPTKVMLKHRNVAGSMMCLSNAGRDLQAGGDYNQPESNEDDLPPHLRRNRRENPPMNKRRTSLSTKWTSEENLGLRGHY

[5] = molecular target: T3, ORF 73 (Human herpesvirus 8, UniProt O40947); assay: inhibitors of C-LANA binding to LBS DNA, dose response, biochemical, fluorescence polarization, cherry-picked samples (AID 504725); design: species or system Human gammaherpesvirus 8;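 note: fluorescence polarization of a labeled DNA duplex reporting LANA DNA binding; potency is for inhibitors that block LANA binding to the DNA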
T3 sequence (O40947 whole entry): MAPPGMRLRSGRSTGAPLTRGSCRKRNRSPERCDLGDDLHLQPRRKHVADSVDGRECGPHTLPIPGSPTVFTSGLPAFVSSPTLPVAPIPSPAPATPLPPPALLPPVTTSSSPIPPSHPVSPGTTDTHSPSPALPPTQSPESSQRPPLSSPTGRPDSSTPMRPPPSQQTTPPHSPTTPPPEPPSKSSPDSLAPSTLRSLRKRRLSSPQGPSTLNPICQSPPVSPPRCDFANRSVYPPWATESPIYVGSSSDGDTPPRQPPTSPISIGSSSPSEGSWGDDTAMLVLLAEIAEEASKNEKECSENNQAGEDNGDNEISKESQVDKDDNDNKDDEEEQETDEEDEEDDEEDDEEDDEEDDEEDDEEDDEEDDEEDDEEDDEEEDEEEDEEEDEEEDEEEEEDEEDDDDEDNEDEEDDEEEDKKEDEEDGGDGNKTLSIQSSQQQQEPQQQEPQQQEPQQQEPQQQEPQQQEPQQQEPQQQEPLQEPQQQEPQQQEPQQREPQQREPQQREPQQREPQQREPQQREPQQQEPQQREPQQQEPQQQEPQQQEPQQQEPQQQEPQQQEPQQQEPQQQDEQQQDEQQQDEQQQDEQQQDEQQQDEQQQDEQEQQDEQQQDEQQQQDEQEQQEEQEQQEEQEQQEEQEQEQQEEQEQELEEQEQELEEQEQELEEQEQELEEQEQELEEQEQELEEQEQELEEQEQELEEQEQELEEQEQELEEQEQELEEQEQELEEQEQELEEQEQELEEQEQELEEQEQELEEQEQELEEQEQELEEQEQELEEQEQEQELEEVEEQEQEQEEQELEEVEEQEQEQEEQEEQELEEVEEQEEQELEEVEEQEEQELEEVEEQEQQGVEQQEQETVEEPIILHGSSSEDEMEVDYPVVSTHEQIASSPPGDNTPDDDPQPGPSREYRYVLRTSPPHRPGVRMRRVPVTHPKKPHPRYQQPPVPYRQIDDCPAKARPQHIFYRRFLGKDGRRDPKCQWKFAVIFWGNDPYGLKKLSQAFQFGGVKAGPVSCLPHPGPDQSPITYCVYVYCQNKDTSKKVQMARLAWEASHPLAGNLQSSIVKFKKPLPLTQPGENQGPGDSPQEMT

[6] = molecular target: Troponin, cardiac muscle (Homo sapiens, UniProt P19429+P45379+P63316); assay: inhibitors of cardiac thin filament calcium sensitivity, dose response, biochemical, fluorescence, cardiac regulated thin filaments, triplicate IC50 (AID 504742); assay type: protein-complex assay
[7] = molecular target: Genome polyprotein (dengue virus type 2, UniProt P29990); assay: Dengue-2 NS5 methyltransferase inhibitors, primary screen, biochemical, confirmation dose response (AID 588689); assay type: functional
[8] = molecular target: Polyadenylate-binding protein 1 (Homo sapiens, UniProt P11940); assay: PABP1 MLLE–PAM2 binding inhibitor potency, dose response, biochemical, fluorescence polarization, FITC-PAM2 peptide (AID 602259); assay type: functional; conditions: read-out: IC50_Mean
[9] = molecular target: Tyrosyl-DNA phosphodiesterase 2 (Homo sapiens, UniProt O95551); assay: human TDP2 enzyme inhibitors, dose response, biochemical, epi absorbance, IC50 (AID 743297)
[10] = molecular target: Caspase-8 (Homo sapiens, UniProt Q14790); assay: caspase-8 inhibition counter-screen, dose response, selectivity assay for caspase-6 inhibitor project, biochemical, Z-IETD-R110 fluorescence, cherry-picked samples (AID 743294)
[11] = molecular target: T4, Sentrin-specific protease 8 (Homo sapiens, UniProt Q96LD8); assay type: functional
T4 sequence (Q96LD8 whole entry): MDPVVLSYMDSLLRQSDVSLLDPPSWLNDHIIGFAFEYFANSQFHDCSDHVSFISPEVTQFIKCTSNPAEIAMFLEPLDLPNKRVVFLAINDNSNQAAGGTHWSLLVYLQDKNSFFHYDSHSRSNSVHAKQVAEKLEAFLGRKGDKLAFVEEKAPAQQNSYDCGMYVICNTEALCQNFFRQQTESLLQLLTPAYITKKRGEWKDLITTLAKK

[12] = molecular target: Focal adhesion kinase 1 (Homo sapiens, UniProt Q05397); assay type: functional;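 note: measured as one member of a kinome panel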
Sequence of Focal adhesion kinase 1 (Q05397 whole entry): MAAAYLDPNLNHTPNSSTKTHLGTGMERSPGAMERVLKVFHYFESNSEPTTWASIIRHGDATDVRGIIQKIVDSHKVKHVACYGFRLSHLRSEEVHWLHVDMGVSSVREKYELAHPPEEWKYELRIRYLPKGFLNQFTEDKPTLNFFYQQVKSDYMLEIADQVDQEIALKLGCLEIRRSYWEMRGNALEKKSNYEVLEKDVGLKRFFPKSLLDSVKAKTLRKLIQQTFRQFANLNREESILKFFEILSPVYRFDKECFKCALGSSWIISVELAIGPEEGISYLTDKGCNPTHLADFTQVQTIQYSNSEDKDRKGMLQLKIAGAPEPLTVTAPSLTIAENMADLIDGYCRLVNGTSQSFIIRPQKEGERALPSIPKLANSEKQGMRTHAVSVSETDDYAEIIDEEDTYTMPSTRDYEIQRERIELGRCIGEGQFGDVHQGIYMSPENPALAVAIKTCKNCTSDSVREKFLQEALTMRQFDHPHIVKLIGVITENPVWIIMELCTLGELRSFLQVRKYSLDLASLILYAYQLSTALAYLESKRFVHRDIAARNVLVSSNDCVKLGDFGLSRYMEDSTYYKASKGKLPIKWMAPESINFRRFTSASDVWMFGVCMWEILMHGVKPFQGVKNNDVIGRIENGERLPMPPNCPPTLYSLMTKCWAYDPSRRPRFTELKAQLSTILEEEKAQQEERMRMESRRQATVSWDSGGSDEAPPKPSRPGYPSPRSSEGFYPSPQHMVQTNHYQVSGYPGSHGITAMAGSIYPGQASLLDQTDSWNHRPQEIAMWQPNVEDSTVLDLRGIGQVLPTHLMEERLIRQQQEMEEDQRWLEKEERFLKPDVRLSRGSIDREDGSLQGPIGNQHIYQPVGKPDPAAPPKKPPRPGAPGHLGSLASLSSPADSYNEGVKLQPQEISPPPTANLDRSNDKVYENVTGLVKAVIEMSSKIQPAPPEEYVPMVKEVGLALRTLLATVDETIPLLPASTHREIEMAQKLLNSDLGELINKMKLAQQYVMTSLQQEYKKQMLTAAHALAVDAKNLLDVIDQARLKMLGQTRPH

Sequence of Nonstructural protein 1 (Q194T2 whole entry): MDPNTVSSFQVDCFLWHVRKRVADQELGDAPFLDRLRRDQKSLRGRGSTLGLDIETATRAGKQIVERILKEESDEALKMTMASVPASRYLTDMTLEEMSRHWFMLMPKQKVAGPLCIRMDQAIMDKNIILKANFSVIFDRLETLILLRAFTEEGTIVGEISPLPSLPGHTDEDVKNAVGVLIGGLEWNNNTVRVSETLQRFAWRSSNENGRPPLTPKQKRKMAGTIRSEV
Sequence of Tyrosyl-DNA phosphodiesterase 2 (O95551 whole entry): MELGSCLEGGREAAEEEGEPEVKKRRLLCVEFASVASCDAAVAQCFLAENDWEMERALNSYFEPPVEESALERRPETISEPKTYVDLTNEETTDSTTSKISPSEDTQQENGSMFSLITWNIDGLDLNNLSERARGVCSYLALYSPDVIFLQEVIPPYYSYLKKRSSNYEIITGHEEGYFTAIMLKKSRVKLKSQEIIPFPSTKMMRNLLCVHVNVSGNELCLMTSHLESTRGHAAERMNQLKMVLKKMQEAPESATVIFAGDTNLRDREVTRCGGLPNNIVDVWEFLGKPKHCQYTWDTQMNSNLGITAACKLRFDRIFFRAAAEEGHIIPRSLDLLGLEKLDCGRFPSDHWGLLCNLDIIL
Sequence of Genome polyprotein (P29990 2492-3391 limits assumed): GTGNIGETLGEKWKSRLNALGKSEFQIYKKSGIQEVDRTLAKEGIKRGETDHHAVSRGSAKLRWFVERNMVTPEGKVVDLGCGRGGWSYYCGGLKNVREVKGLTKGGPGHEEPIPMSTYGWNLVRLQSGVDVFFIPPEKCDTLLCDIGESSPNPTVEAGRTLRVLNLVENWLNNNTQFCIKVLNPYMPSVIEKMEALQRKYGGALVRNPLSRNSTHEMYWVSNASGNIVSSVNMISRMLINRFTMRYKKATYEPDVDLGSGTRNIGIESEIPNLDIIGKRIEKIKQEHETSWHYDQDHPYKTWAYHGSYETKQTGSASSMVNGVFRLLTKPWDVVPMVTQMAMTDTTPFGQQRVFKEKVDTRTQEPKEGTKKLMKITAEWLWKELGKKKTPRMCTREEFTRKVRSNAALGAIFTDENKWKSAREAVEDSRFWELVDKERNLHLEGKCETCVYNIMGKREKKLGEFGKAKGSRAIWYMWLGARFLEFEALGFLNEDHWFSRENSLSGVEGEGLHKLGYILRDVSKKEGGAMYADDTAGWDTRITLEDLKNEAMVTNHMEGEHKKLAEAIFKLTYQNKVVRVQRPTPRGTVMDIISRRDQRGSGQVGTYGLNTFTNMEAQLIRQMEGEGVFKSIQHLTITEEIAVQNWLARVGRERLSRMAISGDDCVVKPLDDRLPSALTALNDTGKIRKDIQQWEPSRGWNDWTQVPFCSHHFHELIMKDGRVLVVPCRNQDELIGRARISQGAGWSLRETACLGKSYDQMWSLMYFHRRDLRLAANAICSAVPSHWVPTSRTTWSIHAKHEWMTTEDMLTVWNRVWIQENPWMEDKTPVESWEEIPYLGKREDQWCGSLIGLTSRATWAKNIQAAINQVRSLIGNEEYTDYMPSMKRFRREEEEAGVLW
Sequence of Caspase-8 (Q14790 217-374 limits assumed): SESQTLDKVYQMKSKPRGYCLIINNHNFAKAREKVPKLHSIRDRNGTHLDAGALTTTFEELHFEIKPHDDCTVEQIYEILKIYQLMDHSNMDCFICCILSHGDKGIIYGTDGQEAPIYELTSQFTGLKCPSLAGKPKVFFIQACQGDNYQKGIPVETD
Sequence of Caspase-8 (Q14790 385-479 limits assumed): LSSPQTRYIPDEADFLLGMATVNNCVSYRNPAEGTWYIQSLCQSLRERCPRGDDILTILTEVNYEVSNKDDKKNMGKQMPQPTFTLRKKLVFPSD
Sequence of Polyadenylate-binding protein 1 (P11940 whole entry): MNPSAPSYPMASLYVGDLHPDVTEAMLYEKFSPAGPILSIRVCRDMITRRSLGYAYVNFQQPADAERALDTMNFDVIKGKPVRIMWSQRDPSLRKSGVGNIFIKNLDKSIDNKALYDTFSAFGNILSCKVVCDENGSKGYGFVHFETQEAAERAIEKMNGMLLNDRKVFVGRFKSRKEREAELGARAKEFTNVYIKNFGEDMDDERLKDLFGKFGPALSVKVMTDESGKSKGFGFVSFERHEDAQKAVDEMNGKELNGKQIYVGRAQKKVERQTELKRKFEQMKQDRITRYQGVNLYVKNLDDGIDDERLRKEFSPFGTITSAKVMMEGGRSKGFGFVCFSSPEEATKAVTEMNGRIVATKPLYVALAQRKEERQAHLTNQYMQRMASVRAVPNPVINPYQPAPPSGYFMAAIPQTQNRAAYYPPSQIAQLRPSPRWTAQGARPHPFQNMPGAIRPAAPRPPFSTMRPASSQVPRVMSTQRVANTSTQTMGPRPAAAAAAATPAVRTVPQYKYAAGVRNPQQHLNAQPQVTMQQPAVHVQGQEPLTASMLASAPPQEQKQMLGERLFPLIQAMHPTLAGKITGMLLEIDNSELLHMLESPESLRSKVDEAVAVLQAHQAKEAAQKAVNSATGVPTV

For CCN(CC)CCOc1ccc2c(c1)C(=NNC(=O)c1ccccn1)c1cc(OCCN(CC)CC)ccc1-2, the IC50 [1] was 13.8 µM (active).
In the case of O=C(O)c1ccc2c(c1)[C@@H]1C=CC[C@@H]1[C@H](c1ccccn1)N2, the EC50 [2] is reported as > 150 µM (inactive), the EC50 [3] is reported as 4.61 µM (inconclusive) and the EC50 [4] is reported as 31.1 µM (inconclusive). For the same compound, the AC50 [5] was 21.7 µM (active), the IC50 [6] was > 71.5 µM (inactive) and the IC50 [7] was 26.3 µM (active). For the same compound, the IC50 [8] was 53.3 µM (inactive).
In the case of Oc1nc(Nc2ccc(F)cc2)cc2ccccc12, the IC50 [9] is reported as 7.66 µM (active) and the AC50 [10] is reported as 2.48 µM (active).
In the case of CN(C)c1cc(N/N=C\c2ccccc2)nc(N(C)C)n1, the IC50 [11] is reported as 0.368 µM (active).
With NC(COc1cncc(-c2ccc3c(c2)C(=Cc2ccc[nH]2)C(=O)N3)c1)Cc1ccccc1 (configuration not stated) the Ki [12] was 2 µM (active).
